Measured values from PubChem BioAssay (NCI).
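In this assay, cells in 96-well plates receive the compound at five concentrations for 48 hours. Endpoints are linearly interpolated between the surrounding concentrations. TGI is the concentration that stops growth completely.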

How the values were obtained:
Assay in all cases: NCI tumour cell line growth inhibition, 48 h
[1] = tested on: 786-0 renal
[2] = tested on: A498 renal
[3] = tested on: A549 NSCLC
[4] = tested on: ACHN renal
[5] = tested on: CAKI-1 renal
[6] = tested on: CCRF-CEM leukemia
[7] = tested on: COLO 205 colon
[8] = tested on: DU-145 prostate
[9] = tested on: EKVX NSCLC
[10] = tested on: HCC-2998 colon
[11] = tested on: HCT-116 colon
[12] = tested on: HCT-15 colon
[13] = tested on: HL-60(TB) leukemia
[14] = tested on: HOP-62 NSCLC
[15] = tested on: HOP-92 NSCLC
[16] = tested on: HS 578T breast
[17] = tested on: HT29 colon
[18] = tested on: IGROV1 ovarian
[19] = tested on: K-562 leukemia
[20] = tested on: KM12 colon
[21] = tested on: LOX IMVI melanoma
[22] = tested on: M14 melanoma
[23] = tested on: MALME-3M melanoma
[24] = tested on: MCF7 breast
[25] = tested on: MDA-MB-231 breast
[26] = tested on: MDA-MB-435
[27] = tested on: MDA-N
[28] = tested on: MOLT-4 leukemia
[29] = tested on: NCI-H226 lung
[30] = tested on: NCI-H23 lung
[31] = tested on: NCI-H460 lung
[32] = tested on: NCI-H522 lung
[33] = tested on: NCI/ADR-RES ovarian
[34] = tested on: OVCAR-3 ovarian
[35] = tested on: OVCAR-4 ovarian
[36] = tested on: OVCAR-5 ovarian
[37] = tested on: OVCAR-8 ovarian
[38] = tested on: PC-3 prostate
[39] = tested on: RPMI-8226 leukemia
[40] = tested on: RXF 393 renal
[41] = tested on: SF-268 CNS
[42] = tested on: SF-295 CNS
[43] = tested on: SF-539 CNS
[44] = tested on: SK-MEL-2 melanoma
[45] = tested on: SK-MEL-28 melanoma
[46] = tested on: SK-MEL-5 melanoma
[47] = tested on: SK-OV-3 ovarian
[48] = tested on: SN12C renal
[49] = tested on: SNB-19 CNS
[50] = tested on: SNB-75 CNS
[51] = tested on: SR leukemia
[52] = tested on: SW-620 colon
[53] = tested on: T-47D breast
[54] = tested on: TK-10 renal
[55] = tested on: U251 CNS
[56] = tested on: UACC-257 melanoma
[57] = tested on: UACC-62 melanoma
[58] = tested on: UO-31 renal

Measured: TGI

CCCNC(=S)N=Nc1c(O)[nH]c2ccccc12
> 100 µM: all assays above
